This passage reports IC50 and viability, T/C results from PubChem BioAssay AID1963425 (Molecular Pharmacology Branch, DTP, NCI, 2024).

Values joined by “and” are separate entries in the source; they are usually repeats but may differ in a detail not shown here. Equal entries are not always repeated.

For the experiment, the system named is 323965-272-R-J2-PDC complex spheroid growth, % test/control. As to the kind of experiment: Anticancer human tumor 323965-272-R-J2-PDC patient-derived pancreatic carcinoma cell line growth inhibition [Asc]. The following applies: for viability, T/C: stronger effect = lower value. The method in brief: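 Tumor cells were grown as multicellular spheroids with stromal HUVEC and mesenchymal stem cells and treated singly or in combination. Concentrations fell in half-log steps from the clinical Cmax, or from 10 microM where none was known.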

[1] abbreviates: compound alone, run of 11/07/2022.
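Further: compound exposure lasted 7 days starting three days after spheroid seeding.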
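Wherever viability, T/C is given: 100% = DMSO vehicle control wells with viability set relative to vehicle.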

The IC50 is the concentration at which inhibition is half-maximal. Usually viability, T/C stands for the ratio of treated to control. For `Cc1nc(N2CCC3(CC2)COC(C)C3N)c(CO)nc1Sc1ccnc(N)c1Cl` (stereo not given) + Cc1c(S(C)(=O)=O)c(-c2cc(F)cc(N3CCN(c4ccc(NS(=O)(=O)c5ccc(NC(CCN6CCC(C(=O)OCCCP(=O)(O)O)CC6)CSc6ccccc6)c(S(=O)(=O)C(F)(F)F)c5)cc4)CC3)c2)c(-c2ccc(Cl)cc2)n1C(C)C, the concentration for half-maximal inhibition (IC50) stood at 1610 nM (curve of first compound, second compound 0.0316 µM); 981 nM (curve of first compound, second compound 0.1 µM); 809 nM (curve of first compound, second compound 0.316 µM); 281 nM (curve of first compound, second compound 1 µM); 85.9 nM (curve of first compound, second compound 3.16 µM); 59.2 nM (curve of first compound, second compound 10 µM). Besides, the viability, T/C is, setting by setting: (second compound 0.0316 µM, first compound 0.00949 µM) 92.9%; (second compound 0.0316 µM, first compound 0.03 µM) 87.9%; (second compound 0.0316 µM, first compound 0.0949 µM) 79.6%; (second compound 0.0316 µM, first compound 0.3 µM) 67.8%; (second compound 0.0316 µM, first compound 0.949 µM) 54.9%; (second compound 0.0316 µM, first compound 3 µM) 44.2%. For the same compound, the viability, T/C (second compound 0.1 µM, first compound 0.00949 µM) is 105%; the viability, T/C (second compound 0.1 µM, first compound 0.03 µM) was 96.2%; the viability, T/C (second compound 0.1 µM, first compound 0.0949 µM) is 70.6%; the viability, T/C (second compound 0.1 µM, first compound 0.3 µM) is 69%; the viability, T/C (second compound 0.1 µM, first compound 0.949 µM) was 49.1%; the viability, T/C (second compound 0.1 µM, first compound 3 µM) is 37.8%. The viability, T/C (second compound 0.316 µM, first compound 0.00949 µM) is 92.2%; the viability, T/C (second compound 0.316 µM, first compound 0.03 µM) is 87.2%; the viability, T/C (second compound 0.316 µM, first compound 0.0949 µM) is 76.1%; the viability, T/C (second compound 0.316 µM, first compound 0.3 µM) was 62.2%; the viability, T/C (second compound 0.316 µM, first compound 0.949 µM) is 48.5%; the viability, T/C (second compound 0.316 µM, first compound 3 µM) is 35.9%. For the same compound, the viability, T/C runs as follows: (second compound 1 µM, first compound 0.00949 µM) 81%; (second compound 1 µM, first compound 0.03 µM) 78%; (second compound 1 µM, first compound 0.0949 µM) 64.8%; (second compound 1 µM, first compound 0.3 µM) 48.9%; (second compound 1 µM, first compound 0.949 µM) 36.1%; (second compound 1 µM, first compound 3 µM) 28.1%. Further, the viability, T/C (second compound 3.16 µM, first compound 0.00949 µM) is 72.8%; the viability, T/C (second compound 3.16 µM, first compound 0.03 µM) was 64.3%; the viability, T/C (second compound 3.16 µM, first compound 0.0949 µM) is 45.8%; the viability, T/C (second compound 3.16 µM, first compound 0.3 µM) is 37.6%; the viability, T/C (second compound 3.16 µM, first compound 0.949 µM) was 29.6%; the viability, T/C (second compound 3.16 µM, first compound 3 µM) is 19.6%. Also, the viability, T/C (second compound 10 µM, first compound 0.00949 µM) is 73.3%; the viability, T/C (second compound 10 µM, first compound 0.03 µM) was 59.3%; the viability, T/C (second compound 10 µM, first compound 0.0949 µM) is 41.7%; the viability, T/C (second compound 10 µM, first compound 0.3 µM) was 34.5%; the viability, T/C (second compound 10 µM, first compound 0.949 µM) was 23.2%; the viability, T/C (second compound 10 µM, first compound 3 µM) is 15%.
For the compound `CCN1C(C(=O)NC23CCC(C(=O)O)(CC2)CC3)C(c2cccc(Cl)c2F)C2(C(=O)Nc3cc(Cl)ccc32)C12CCCCC2` (stereo not given), the viability, T/C (compound 0.00949 µM) is 109% [middle of 9 runs]; the viability, T/C (compound 0.03 µM) is 105% [middle of 9 runs]; the viability, T/C (compound 0.0949 µM) is 104% [middle of 9 runs]; the viability, T/C (compound 0.3 µM) was 101% [middle of 9 runs]; the viability, T/C (compound 0.949 µM) was 110% [middle of 9 runs]; the viability, T/C (compound 3 µM) is 101% [middle of 9 runs]. Further, the IC50 is > 3000 nM under setting [1] and > 3000 nM (curve of compound).
In the case of `Cc1c(S(C)(=O)=O)c(-c2cc(F)cc(N3CCN(c4ccc(NS(=O)(=O)c5ccc(NC(CCN6CCC(C(=O)OCCCP(=O)(O)O)CC6)CSc6ccccc6)c(S(=O)(=O)C(F)(F)F)c5)cc4)CC3)c2)c(-c2ccc(Cl)cc2)n1C(C)C` (stereo not given), the viability, T/C runs as follows: (compound 0.0316 µM) 107% [middle of 7 runs]; (compound 0.1 µM) 107% [middle of 7 runs]; (compound 0.316 µM) 98.3% [middle of 7 runs]; (compound 3.16 µM) 84.5% [middle of 7 runs]; (compound 10 µM) 76.9% [middle of 7 runs]. Further, the IC50 under setting [1] was > 10000 nM.
`CNC(C)C(=O)NC1CN(S(=O)(=O)c2cccc(S(=O)(=O)N3CCC4CCC(C(=O)NC(c5ccccc5)c5ccccc5)N4C(=O)C(NC(=O)C(C)NC)C3)c2)CCC2CCC(C(=O)NC(c3ccccc3)c3ccccc3)N2C1=O` (stereo not given) + CCN1C(C(=O)NC23CCC(C(=O)O)(CC2)CC3)C(c2cccc(Cl)c2F)C2(C(=O)Nc3cc(Cl)ccc32)C12CCCCC2: the concentration for half-maximal inhibition (IC50) reads like this: (curve of first compound, second compound 0.00949 µM) > 1000 nM; (curve of first compound, second compound 0.03 µM) > 1000 nM; (curve of first compound, second compound 0.0949 µM) > 1000 nM; (curve of first compound, second compound 0.3 µM) > 1000 nM; (curve of first compound, second compound 0.949 µM) > 1000 nM; (curve of first compound, second compound 3 µM) > 1000 nM. The viability, T/C by setting is: (second compound 0.00949 µM, first compound 0.00316 µM) 110%; (second compound 0.00949 µM, first compound 0.01 µM) 106%; (second compound 0.00949 µM, first compound 0.0316 µM) 96.8%; (second compound 0.00949 µM, first compound 0.1 µM) 103%; (second compound 0.00949 µM, first compound 0.316 µM) 109%; (second compound 0.00949 µM, first compound 1 µM) 105%. The viability, T/C by setting is: (second compound 0.03 µM, first compound 0.00316 µM) 102%; (second compound 0.03 µM, first compound 0.01 µM) 99%; (second compound 0.03 µM, first compound 0.0316 µM) 105%; (second compound 0.03 µM, first compound 0.1 µM) 105%; (second compound 0.03 µM, first compound 0.316 µM) 113%; (second compound 0.03 µM, first compound 1 µM) 106%. Further, the viability, T/C (second compound 0.0949 µM, first compound 0.00316 µM) is 118%; the viability, T/C (second compound 0.0949 µM, first compound 0.01 µM) was 103%; the viability, T/C (second compound 0.0949 µM, first compound 0.0316 µM) was 103%; the viability, T/C (second compound 0.0949 µM, first compound 0.1 µM) was 95%; the viability, T/C (second compound 0.0949 µM, first compound 0.316 µM) is 106%; the viability, T/C (second compound 0.0949 µM, first compound 1 µM) is 99.5%. Further, the viability, T/C (second compound 0.3 µM, first compound 0.00316 µM) was 123%; the viability, T/C (second compound 0.3 µM, first compound 0.01 µM) is 113%; the viability, T/C (second compound 0.3 µM, first compound 0.0316 µM) is 107%; the viability, T/C (second compound 0.3 µM, first compound 0.1 µM) was 92.8%; the viability, T/C (second compound 0.3 µM, first compound 0.316 µM) was 104%; the viability, T/C (second compound 0.3 µM, first compound 1 µM) is 102%. For the same compound, the viability, T/C by setting is: (second compound 0.949 µM, first compound 0.00316 µM) 112%; (second compound 0.949 µM, first compound 0.01 µM) 107%; (second compound 0.949 µM, first compound 0.0316 µM) 96.2%; (second compound 0.949 µM, first compound 0.1 µM) 104%; (second compound 0.949 µM, first compound 0.316 µM) 95.1%; (second compound 0.949 µM, first compound 1 µM) 88.5%. Further, the viability, T/C (second compound 3 µM, first compound 0.00316 µM) was 98.9%; the viability, T/C (second compound 3 µM, first compound 0.01 µM) was 109%; the viability, T/C (second compound 3 µM, first compound 0.0316 µM) is 90.3%; the viability, T/C (second compound 3 µM, first compound 0.1 µM) is 101%; the viability, T/C (second compound 3 µM, first compound 0.316 µM) was 89.5%; the viability, T/C (second compound 3 µM, first compound 1 µM) is 95.2%.
For `O=C(c1ccc(F)c(F)c1Nc1ccc(I)cc1F)N1CC(O)([C@@H]2CCCCN2)C1`, the viability, T/C was 106% and 101% and 88.5% (compound 0.00316 µM); 82.5% and 96.7% and 83.5% (compound 0.01 µM); 87% and 76.1% and 79% (compound 0.0316 µM); 62.9% and 59.7% and 52.5% (compound 0.1 µM); 34.9% and 34.5% and 31.9% (compound 0.316 µM); 19.6% and 20.1% and 18.8% (compound 1 µM). Moreover, the IC50 (curve of compound) is 176 nM and 149 nM and 123 nM.
